In US7723328B2, “Methods of facilitating cell survival using neurotrophin mimetics” (The University of North Carolina at Chapel Hill, priority 2005, dated 2010):
Entries after “also recorded” stand apart in the source; their conditions may differ.

What was measured:
[1] = target: T1, TrkA (Homo sapiens, UniProt P04629); experiment: Trk Y490 phosphorylation western blot in TrkA-expressing 3T3 cells; format: cell-based
T1 construct: expressed in transfected cells; host or cells: 3T3 cells (3T3-TrkA)
Method: (§1) Lysates were centrifuged, the supernatant collected, and protein concentrations determined using the BCA Protein Assay Reagent obtained from Pierce (Rockford, Ill., United States of America). Western blots were performed as described previously (Yang, T. et al. (2003) J Neurosci 23, 3353-3363). Western blot signals were detected using the ECL Chemiluminescence System obtained by Amersham (Piscataway, N.J., United States of America) (Yang, T. et al. (2003) J Neurosci 23, 3353-3363).

[2] = target: T2, p75^NTR (Homo sapiens, UniProt P08138); experiment: proNGF binding to p75NTR by ELISA; conditions: 100 ng/ml proNGF
T2 construct: purchased R&D Systems
Method: (§2) Briefly, 96-well plates were incubated with 0.1 pmol (at 1 nM) of p75/Fc or TrkA/Fc recombinant protein obtained from R&D System (Minneapolis, Minn., United States of America) overnight at 4° C. followed by incubation with blocking buffer for 1 hour at room temperature. […] Plates were then washed five times with Tris-buffered saline (TBS) containing 0.05% Tween-20 and incubated with anti-NGF rabbit polyclonal antibody overnight at 4° C. Following five washes with TBS, wells were incubated for 2.5 hours at room temperature with anti-rabbit IgG HRP conjugate and washed five times. 3,3′,5,5′-tetramethyl-benzidine substrate was added and the optical density measured at 450 nm.

[3] = system: hippocampal neurons; experiment: Hippocampal neuron survival with signaling pathway inhibitors; format: cell-based, mouse; conditions: BDNF/NGF 25 ng/ml, compounds 5 nM, 48 h
Method: (§3) Hippocampal neurons were prepared from E16-17 mouse embryos as previously described (Yang. T. et al. (2003) J Neurosci 23, 3353-3363). […] For studies employing p75^NTR+/+ and p75^NTR−/− neurons, mice carrying a mutation in exon 3 of the p75^NTR gene (Lee, K. F. et al. (1992) Cell 69, 737-749) were bred onto a B6 congenic background (>10 B6 backcrosses).
(§4) After 48 hours in culture, cell survival was assessed as previously described (Longo, F. M., Manthorpe. M., Xie. Y. M., Varon, S. (1997) J Neurosci Res 48, 1-17) using a combination of standard morphological criteria along with visual determination of whether a given cell converted MTT to its blue formazan product. The number of surviving neurons was determined by counting the total number of cells in each well that were both morphologically intact and filed with blue product (Longo F. M., Manthorpe. M., Xie, Y. M., Varon, S. (1997) J Neurosci Res 48, 1-17). For each neurotrophin or compound concentration, duplicate wells were counted and the resulting values averaged. Activity of each compound was confirmed by blinded counts. Counts were normalized to survival achieved with 25 ng/ml BDNF or to baseline survival. Fitting of dose-responsive curves was performed with Sigmaplot obtained from SYSTAT Software Inc. (Richmond, Calif., United States of America).
(§5) For all studies applying signaling inhibitors, p75^NTR antibodies or p75^NTR−/− neurons, survival was assessed at 48 hours.

[4] = system: hippocampal neurons; experiment: Hippocampal neuron survival with p75NTR antisera (antibody inhibition); format: cell-based, mouse; conditions: antiserum 1:100, 48 h
Method: as §3, §4, §5

[5] = system: E16-17 mouse hippocampal neurons; experiment: Hippocampal neuron survival (morphology plus MTT conversion); format: cell-based
Method: as §3, §4

[6] = system: TrkA-Fc; experiment: NGF/TrkA-Fc binding by NGF ELISA; conditions: up to 10,000 nM compound
Method: as §2

[7] = system: p75^NTR−/− cells; experiment: Survival of p75NTR+/+ versus p75NTR-/- hippocampal neurons; format: cell-based, mouse; conditions: neurotrophins 1.8 nM, compounds 5 nM
Method: as §3, §4, §5

[8] = system: AKT; experiment: AKT activation western blot in hippocampal cultures; format: cell-based, mouse; conditions: 20 nM, relative to NGF
Method: For assays of Trk, AKT, NFκB, and ERK activation, hippocampal neurons derived from E16-17 mice were cultured in poly-L-lysine coated six-well plates (Corning, Inc., Corning, N.Y., United States of America) in DMEM containing 10% FBS, followed by incubation in serum-free DMEM for 2 hours before addition of neurotrophins or compounds. At the indicated time points, neurons were harvested in lysis buffer consisting of: 20 mM Tris, pH 8.0, 137 mM NaCl, 1% Igepal CA-630, 10% glycerol, 1 mM PMSF, 10 μg/ml aprotinin, 1 μg/ml leupeptin, 500 μM orthovanadate (Zhou, J., Valletta, J. S., Grimes, M. L., Mobley, W. C. (1995) J Neurochem 65, 1146-1156).
as §1

[9] = system: E17 hippocampal neurons; experiment: Aβ-induced death of hippocampal neurons; format: cell-based; conditions: Aβ1-42 10 μM; NGF at 100 pg/ml
Method: Using previously well established protocols, Aβ was preincubated for 3 days in water to allow formation of oligomers. E17 hippocampal neurons were incubated for 5 days to allow for maturation prior to addition of Aβ with test compounds.

T2 sequence (P08138 with tags, fused parts or gaps limits assumed): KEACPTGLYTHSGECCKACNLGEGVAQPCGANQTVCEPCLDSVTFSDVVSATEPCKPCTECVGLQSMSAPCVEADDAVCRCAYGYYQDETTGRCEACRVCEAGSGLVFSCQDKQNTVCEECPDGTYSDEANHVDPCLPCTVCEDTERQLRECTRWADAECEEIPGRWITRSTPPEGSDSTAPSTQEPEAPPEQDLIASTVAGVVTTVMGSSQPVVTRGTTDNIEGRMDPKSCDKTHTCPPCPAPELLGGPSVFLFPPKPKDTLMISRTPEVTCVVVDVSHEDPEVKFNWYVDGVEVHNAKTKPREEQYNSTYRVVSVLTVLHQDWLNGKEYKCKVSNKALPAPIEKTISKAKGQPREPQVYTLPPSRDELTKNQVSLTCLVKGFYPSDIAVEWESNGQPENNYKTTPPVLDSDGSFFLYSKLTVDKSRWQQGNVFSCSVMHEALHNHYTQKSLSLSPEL
T1 sequence (P04629 33-796, species assumed): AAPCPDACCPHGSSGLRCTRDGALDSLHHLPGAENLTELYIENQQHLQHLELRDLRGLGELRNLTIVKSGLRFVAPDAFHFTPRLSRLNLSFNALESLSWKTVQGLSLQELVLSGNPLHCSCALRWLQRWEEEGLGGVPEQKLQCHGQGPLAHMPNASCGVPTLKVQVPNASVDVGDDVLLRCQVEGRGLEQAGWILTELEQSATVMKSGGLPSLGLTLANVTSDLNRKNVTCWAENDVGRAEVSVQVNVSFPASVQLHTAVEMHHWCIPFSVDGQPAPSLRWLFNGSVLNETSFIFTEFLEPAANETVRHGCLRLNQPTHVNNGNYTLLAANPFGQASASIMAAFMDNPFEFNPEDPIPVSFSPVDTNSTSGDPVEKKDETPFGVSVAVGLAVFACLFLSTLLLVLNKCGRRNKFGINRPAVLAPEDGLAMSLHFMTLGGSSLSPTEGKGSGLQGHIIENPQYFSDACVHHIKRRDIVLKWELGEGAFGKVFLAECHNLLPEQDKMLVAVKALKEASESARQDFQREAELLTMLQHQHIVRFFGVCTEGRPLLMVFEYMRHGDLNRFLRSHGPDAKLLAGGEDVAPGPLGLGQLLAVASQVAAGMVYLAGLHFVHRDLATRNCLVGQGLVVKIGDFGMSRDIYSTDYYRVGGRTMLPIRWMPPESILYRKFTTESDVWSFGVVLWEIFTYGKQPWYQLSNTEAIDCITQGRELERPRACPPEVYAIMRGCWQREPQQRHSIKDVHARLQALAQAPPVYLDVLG

TrkA activation (Trk Y490 phosphorylation) [1]: no detectable activation | proNGF ELISA signal versus proNGF alone ([2]; P<0.01): significantly less than proNGF alone | decrement of proNGF binding to p75NTR ([2]; at the highest concentration (range 1500 nM to 10,000 nM)): approximately 30%
Structure (SMILES): CCC(C)C(N)C(=O)NCCN1CCOCC1 (stereo not shown) [Compound 4]
effect of PD98059 (ERK inhibitor) on survival promoted by the substance ([3]; PD98059 50 μM): no significant decrease | effect of SN50 (NFκB translocation inhibitor) on survival promoted by the substance ([3]; SN50 2.5 μg/ml): significantly reduced | effect of Ab 9651 on promotion of neuron survival by the substance [4]: completely blocked; also recorded: completely inhibits | survival versus CM in the presence of Ab 9651 [4]: not significant | additive effect on survival with NGF ([5]; 5 nM compound along with 50 ng/ml NGF): no additive effect on survival | EC50 ([5]; Mus musculus, Hippocampal neuron, dose-response, FIG. 2b, read-out: EC50 of survival-promoting (biologic) effect): ~0.15 nM | effect on NGF binding to TrkA-Fc [6]: did not affect; also recorded: no compound effects up to 10,000 nM | effect of p75NTR-deficiency on promotion of neuron survival by the substance [7]: completely inhibits | onset of AKT activation [8]: slower than that of NGF | protection against Aβ1-42-induced death [9]: entirely block
